“And” between values parts separate entries of the source, which are not always exact repeats. Identical values can stand only once.
What was measured:
[1] = system: Serum ceruloplasmin (Cp); test: Phase I trial: serum ceruloplasmin as surrogate marker of total-body copper; assay type: in vivo, human
Method: Three dose regimens were evaluated. All dose levels consisted of TM 20 mg given 3 times daily with meals plus an escalating (levels I, II, and III) in-between meal dosing, given 3 times daily, for a total of 6 doses per day. Loading dose levels I, II, and III provided TM at 10 mg, 15 mg, and 20 mg, 3 times daily between meals, respectively, in addition to the 3 doses of 20 mg each, given with meals, at all dose levels.
Baseline Cp was taken as the nearest Cp measurement to day 1 of treatment, including day 1, since the blood was drawn pre-TM, for all patients. The target Cp reduction was defined as 20% of baseline Cp. Due to Cp assay variability of approximately 2%, a change of Cp to 22% of baseline was considered as achieving the desired reduction of copper. In addition, if the absolute Cp was less than 5 mg/dl, then the patient was considered as having reached the target Cp. No patient reached the target due to an absolute Cp of less that 5 mg/dl, without also being at least 78% reduced from baseline. After reaching the target copper deficient state, TM doses were individually tailored to maintain Cp within a target window of 70-90% reduction from baseline.
A method was required to monitor copper status easily and reliably, so that TM dose could be adjusted appropriately during this trial. With TM administration, serum copper is not a useful measure of total-body copper, because the TM-copper-albumin complex is not rapidly cleared, and the total serum copper (including the fraction bound to the TM-protein complex) actually increases during TM therapy (Brewer et al., 1991a; 1994b; 1996). The serum ceruloplasmin level obtained weekly was used as a surrogate measure of total-body copper status. The serum Cp level is controlled by Cp synthesis by the liver, which, in turn, is determined by copper availability to the liver (Linder et al., 1979). […] The serum Cp level is in the range of 20-35 mg/dl and 30-65 mg/dl for normal controls and cancer patients, respectively. The objective as this trial was to reduce Cp to or below 20% of baseline, and to maintain this level, within a window spanned by (20±10) % of the baseline Cp, with typical Cp values in the range of 7-12 mg/dl. Since there appears to be no untoward clinical effects from this degree of copper reduction, this level of copper deficiency has been termed “chemical copper deficiency”. The first indication of true clinical copper deficiency is a reduction in blood cell counts, primarily anemia, as copper is required for heme synthesis as well as cellular proliferation (Brewer et al., 1996). Thus, the copper deficiency objective of this trial was to reduce the Cp to 20% of baseline or below, without decreasing the patient's hematocrit or WBC to below 80% of the baseline value at entry.
Complete blood counts, liver and renal function tests, urinalyses, and Cp level (by the oxidase method) were performed weekly for 16 weeks, then bi-weekly. Physical examinations and evaluations of toxicity were carried out every 2 weeks for 8 weeks, then every 4 weeks for the duration of therapy. Toxicity was evaluated using the National Cancer Institute Common Toxicity Criteria (Table 3). As TM is not a cytotoxic drug at the doses employed, and it has already been given to humans without any other toxicities than the ones described in detail above, the majority of the toxicities listed in Table 3, should they arise, are not expected to be due to TM. Nevertheless, therapy will be discontinued and the patient removed from the study if grade 3 or higher toxicities of any type are observed, whatever the probable etiology. For grade 2 toxicities, an attempt will be made to establish their etiology.

[2] = system: metastatic solid tumors; test: Phase I trial: clinical and radiologic response of metastatic cancer; assay type: in vivo, human
Source text: Patients with effusions or bone marrow involvement as the only manifestations of disease, and those who had severe intercurrent illness requiring intensive management or were transfusion dependent, were excluded. […] Other requirements were demonstrable progression of disease in the previous 3 months, after standard treatments such as surgery, chemotherapy, radiotherapy, and/or immunotherapy, or progressive disease after declining conventional treatment modalities.
Six patients were to be enrolled at each dose level. After 4 patients were enrolled at level I, if one patient experienced dose-limiting toxicity (DLT) (defined as Hct<80% of baseline), 2 more patients were enrolled at level I. If no DLT was observed, patients were enrolled at the next dose level. Treatment was allowed to continue beyond induction of target copper deficiency, if the patients experienced a partial or complete clinical response or achieved clinical stable disease by the following definitions. Complete response is defined as the disappearance of all clinical and laboratory signs and symptoms of active disease. Partial response is defined as a 50% or greater reduction in the size of measurable lesions defined by the sum of the products of the longest perpendicular diameters of the lesions, with no new lesions or lesions increasing in size. Minor response is defined as a 25-49% reduction in the sum of the products of the longest perpendicular diameters of one or more measurable lesions, no increase in size of any lesions and no new lesions; stable disease is any change in tumor measurements not represented by the criteria for response or progressive disease, which is defined as an increase of 25% or more in the sum of the products of the longest perpendicular diameters of any measurable indicator lesions, compared to the smallest previous measurement or appearance of a new lesion. Because copper deficiency is not a cytotoxic treatment modality, the patients who provide information about the efficacy of TM for long-term therapy, in this population of patients with advanced cancer, are primarily those who remained within the target Cp window of (20±10)% of baseline for over 90 days, without disease progression
Extent of disease was evaluated at entry, at the point of achievement of copper deficiency, defined as Cp at or below 20% of baseline, and every 10-12 weeks thereafter. Computer-assisted tomography or magnetic resonance imaging were used as appropriate for conventional measurement of disease at all known sites and for evaluation of any potential new sites of disease. Angiogenesis-sensitive ultrasound with 3-dimensional Doppler analyses was employed in select cases, as adjunct to conventional imaging, to evaluate the blood flow to the tumors at different time points.
Blood flow was measured by ultrasound in select patients with accessible lesions, at the time they became copper deficient, and at variable intervals of 8-16 weeks thereafter. 3D scanning was performed on a GE Logiq 700 ultrasound system, with the 739L, 7.5 MHz linear array scanhead. The scanning and vascularity quantification techniques were as previously described (Carson et al., 1998; LeCarpentier et al., 1999).

[3] = initial TM doses 90 to 120 mg per day, six times per day regimen
[4] = Target Cp >90 days, + = on therapy

## tetrathiomolybdate [TM]
[1]; 18 patients
  No. of Patients: Achieved Target Cp: 14
  No. of Patients: Did Not Achieve Target Cp: 4
[1]; 90, 105 and 120 mg/day
  time to Cp 50% of baseline, mean: 30 days
  time to Cp 50% of baseline, median: 28 days
[1]; after reduction to 50% of baseline
  time for further reduction to Cp levels of 5-10 mg/dl: 20 to 30 days
[1]; from 10 mg 3× daily to 15 mg or 20 mg 3× daily
  effect of increasing in-between meals dose on Cp decrease: no significant effect on the rate of decrease of the Cp level
[1]; in vivo
  No. of Patients: Target Cp <90 days: 8/14
  No. of Patients: Target Cp >90 days: 6/14
  patients maintained at the target Cp for more than 90 days: 39 % of those treated
  time to rapid rise in Cp when TM was discontinued: ≤ 48 h
[1]; [3]
  patients with serum Cp lowered to 20% of baseline: 14 out of 18
  patients with serum Cp lowered to 50% of baseline: 17 out of 18
[1]; level III dose 120 mg/day
  reaching the target Cp: effective in reaching the target Cp, without added toxicity
[2]; TM alone
  duration of stable disease, patient with previously untreated metastatic breast cancer: over 6 months
[2]; Target Cp <90 days
  No. of Patients: Disease progression: 7
  No. of Patients: Stable disease with partial regression of lung lesions: 1
[2]; Target Cp <90 days, + = on therapy
  Duration of Cu Deficiency: Stable disease with partial regression of lung lesions: 49+ days
[2]; Target Cp >90 days
  No. of Patients: Disease progression at one site, stable elsewhere: 1/6
  No. of Patients: Stable disease: 4/6
  No. of Patients: Stable disease with partial regression of lung lesions: 1/6
[2]; Target Cp >90 days, * = patient discontinued therapy, + = on therapy
  Duration of Cu Deficiency: Stable disease, individual patients: 159 days and 329 days and 351 days and 413 days
[2]; [4]
  Duration of Cu Deficiency (Average): Stable disease: 313 days
  Duration of Cu Deficiency: Disease progression at one site, stable elsewhere: 120+ days
  Duration of Cu Deficiency: Stable disease with partial regression of lung lesions: 120+ days
[2]; long-term therapy
  disease status, patient with metastatic chondrosarcoma: stable disease after 12 months of copper deficiency
[2]; observation periods at target Cp of 120 and 49 days
  lung lesions in two patients with stable disease: complete disappearance of some lung lesions and decrease in size of other lung lesions
[2]; patients copper deficient at the target range for at least 90 days
  patients with stable disease: 5 out of 6 and 5/6
[2]; patients removed from protocol
  disease progression after discontinuation of TM therapy: much more rapid rates of progression of disease
[2]; rib metastasis from renal cell carcinoma, approximately 8 weeks after reaching target copper deficiency
  decrease in blood flow to tumor mass by 3D-ultrasound: 4.4 fold
